Patent US5859032A, “Pyridine derivative, anti-ulcer drug, and antibacterial drug” (priority 1996, dated 1999)

Tests used:
[1] = system: isolated gastric fundic gland; assay: CAP: Acid Secretion Inhibition Test In Vitro ([14C]-aminopyrine uptake test); format: cell-based, Japanese White rabbit; conditions: 10^-5 M, histamine 10^-5 M, 37° C.; for inhibition at 10 µM: Oryctolagus cuniculus, 40 min, read-out: CAP: acid secretion inhibitory rate
Method: CAP: Acid Secretion Inhibition Test In Vitro
The acid secretion inhibitory activity in a cell level is studied. It can also be used for studying the mechanism of the effect. […]
ii-a) Preparation of isolated gastric fundus gland suspension
First, an isolated gastric fundic gland sample was prepared. Namely, a male Japanese White rabbit (2.5 to 3 kg) was anesthetized to death with Nembutal™ and then the abdomen was incised. Immediately thereafter, the stomach was removed and, after its pyloric and cardiac antrum were severed, incised along its greater curvature into two sheets. The gastric contents adhering to the mucosal surface was washed out with ice-cooled PBS (-) and then carefully washed therein. The gastric wall was spread on a cork board with its mucosal surface facing up and the feed and mucus thereon were completely removed with sterile gauze. The mucosa was separated therefrom by a spatula and then collected in ice-cooled PBS (-). After being washed twice with PBS (-), the mucosa was minced into 2-3 mm^3 pieces by scissors. These pieces were further washed twice with a nutrient solution. The nutrient solution comprises 132.4 mM of NaCl, 5.4 mM of KCl, 5 mM of Na2 HPO4. 12H2 O, 1 mM of NaH2 PO4. 2H2 O, 1.2 mM of MgSO4, 1 mM of CaCl 2, 25 mM of HEPES, 2 mg/ml of glucose, and 1 mg/ml of BSA. Into 70 ml of the nutrient solution containing 1 mg/ml of collagenase, minced mucosal pieces were dispersed and intensely stirred in a conical flask with a stirrer at 37° C. for 40 to 60 minutes. During this period, 100% O2 was sprayed on the nutrient solution surface and the pH was appropriately measured such that it was immediately adjusted to pH 7.4, when the value was therebelow, with a base. The nutrient solution was added to the reaction solution so as to attain the total amount of about 200 ml. After being filtered through a mesh, the suspension was divisionally introduced into 50 ml centrifuge tubes and left for 15 minutes such that gastric fundic gland was deposited. The supernatant was repeatedly removed by an aspirator, dispersed in the nutrient solution, and then left such that the gastric fundic gland was washed three times. At this time, without using a pipette, the suspension was alternately introduced into two centrifuge tubes so as to effect dispersion. The number of cells was counted under microscope and adjusted to 1.6×10^6 cells/ml. […]
ii-b) [^14 C]-aminopyrine uptake test
Then, [^14 C]-aminopyrine uptake test was performed. After an Eppendorf tube was weighed, 10 μl (final concentration: 10^-5 M) of histamine dissolved in the above-mentioned nutrient solution, 10 μl (final concentration: 10^-5 M) of the test compound dissolved in DMSO, and 10 μl (final concentration: 0.05 μCi/ml) of [^14 C]-aminopyrine diluted with the nutrient solution were introduced therein and then 970 μl of the isolated gastric fundic gland suspension prepared above was added thereto. Subsequently, this mixture was shaken at 37° C. for 40 minutes at 125 cycles/minute. After being centrifuged for 30 minutes, 200 μl of its supernatant was collected into a mini-vial, while the rest was removed by an aspirator. The gland pellet was completely dried as the tube with its lid being opened was kept for one night in a drying oven at 80° C. and then the lid was closed and the weight was determined at room temperature. Then 100 μl of 1N KOH was added thereto and the tube with its lid being closed was treated at 60° C. for 1 to 2 hours so as to dissolve the pellet. Then, the contents thereof were transferred to a mini-vial. Into the mini-vial containing the supernatant or gland pellet, 4 ml of Atomlite™ was added and then the radioactivity was measured by a liquid scintillation counter. Here, after the radioactivity of the gland pellet was corrected by using a sample in which 20 mM of NaSCN was added so as to cancel the hydrogen ion concentration gradient, the integration ratio of aminopyrine specifically trapped by the gland pellet was calculated. […]

[2] = system: stress ulcer formation (rats); assay: WIS: Restraint and Water Immersion Stress-Induced Ulcer Inhibition Test; format: in vivo, rat (male Crj:SD or Slc:SD); conditions: rat, 100 mg/kg, oral, 7 hours water immersion stress
Method: WIS: Restraint and Water Immersion Stress-Induced Ulcer Inhibition Test
The degree of inhibition of the stress ulcer formation is tested.
Male Crj:SD or Slc:SD rats (6 to 7-week-old) were fasted overnight, but allowed free access to water. Each group has 5 to 8 of these rats. […] To a control group, the vehicle was administered. 10 minutes later, the rats were placed in a stress cage and immersed to the level of xipfoid process in a water bath (21° C.) for 7 hours. At the end of the stress, the rats were sacrificed by inhalation of ether or carbon dioxide. Then, the stomach of each was removed, inflated by injecting 10 ml of 5% formalin neutral buffer solution, and immersed in 1% formalin neutral buffer solution for 30 minutes or more to be fixed. The stomach was incised along the greater curvature and then the length of each erosion in the glandular portion was determined under dissecting microscope. The sum of the length of erosions per stomach was defined as ulcer index (UI).
The effect obtained when 100 mg/kg of the sample compound had been administered was expressed as ulcer formation inhibitory rate (%) as follows:
ulcer formation inhibitory rate (%)=(1-(UI in sample group/UI in control

[3] = MTT: Cell Damaging and Protecting Effect Test; format: cell-based, Japanese White rabbit; conditions: rabbit, gastric mucosa cells, 10^-4 M, 37° C., smaller value is better, read-out: MTT: cell damaging rate
From the text: MTT: Cell Damaging and Protecting Effect Test
It is confirmed that there is no toxicity in cell level. Those having a toxicity in cell level are inappropriate as an anti-ulcer drug.
A male Japanese White rabbit (2.5 to 3 kg) was anesthetized to death by Nembutal™ and, immediately thereafter, its stomach was removed. The greater curvature of the stomach was incised so as to remove the stomach contents therefrom. After the mucosal surface was washed with HBSS (Hanks' Balanced Salt Solution), the stomach in ice-cooled HBSS was transferred to a laboratory. Then, after the pyloric antrum was removed, the gastric corpus mucosa was separated by a spatula and then minced into 2 to 3 mm^3 pieces in BME (Basal Medium Eagle). Thereafter, these pieces were shaken at 120 to 130 cycles/minute for 15 minutes at 37° C. in BME 60 ml containing 280 U/ml of dispase and 30 to 50 U/ml of collagenase. Here, the concentration of collagenase was appropriately changed for each lot in view of the state of cells. The pieces were washed twice with EBSS (Earle's Balanced Salt Solution) containing 1 mM of EDTA and then shaken in MEM (Minimum Essential Medium) containing 1 mM of EDTA at 37° C. for 5 minutes. Subsequently, they were shaken in the dispase and collagenase having the same concentrations as those mentioned above for 15 minutes so as to remove the supernatant and then further shaken at 37° C. for 50 to 60 minutes at 120 to 130 cycles/minute. Then, after being washed twice with HBSS, Ham F12 containing 2% of Ultrocer GT™ was used to attain the concentration of 1×10^6 cells/ml. Thus formed suspension was dispensed in each well of a 96-well plate by 200 μl. The plate was incubated in the atmosphere composed of 5% CO2 and 95% air at 37° C. for three days so as to attain a confluent state and then subjected to MTT assay.
The sample compound was dissolved in DMSO so as to attain a concentration of 10^-2 M and then diluted with HBSS containing 2% of Ultrocer G™ so as to attain a final concentration of 10^-4 M. To each group, which 8 wells were used for, 10 μl of MTT reagent was added immediately after 100 μl of the medium in each well was exchanged for same volume of the resulting solution of the sample compound. After being incubated in an atmosphere composed of 5% CO2 and 95% air at 37° C. for 4 hours, thus formed solution was centrifuged and then its supernatant was discarded. Subsequently, 100 μl of 100% ethanol was added to the residue so as to dissolve MTT formazan. Then, the absorbance (OD: 570 to 630) was measured by a microplate reader. This method utilizes a phenomenon in which MTT is changed to MTT formazan only by mitochondria of living cells so as to change color.
The cell damaging or cell protecting effect of the sample compound at the final concentration of 10^-4 M was expressed as cell damaging rate (%) as follows:
cell damaging rate (%)=(1-(absorbance in sample group/absorbance in control
Accordingly, the smaller value is better in the cell damaging rate.

gastric mucosa = assay: PD: Gastric Mucosal Integrity Test; format: in vivo, rat (male CDj:SD); set-up: key: 5: Same as the control with no recognizable damage at all.; 4: Though a slight PD-decreasing tendency suggesting a slight possibility of mucosal damage is found, there is no problem.; 3: Though a weak decrease in PD and a possibility of a weak mucosal damage is recognized, there is no substantial problem.; 2: Medium degree of decrease in PD is found and a mucosal damage is recognized.; 1: Heavy degree of decrease in PD is found and a remarkable mucosal damage is recognized; conditions: rat, 100 mg/kg into chamber, 60 minutes
Method: PD: Gastric Mucosal Integrity Test
In this case, since the sample compound has a necrotizing effect, it is inappropriate as an anti-ulcer medicament.
Therefore, the gastric mucosal potential difference (PD), which reflects the integrity of the gastric mucosa, is measured so as to confirm that the sample compound has no damaging effect on gastric mucosa, which is toxicity at gastric mucosal level.
Male CDj:SD rats (7 to 8-week-old) were fasted overnight, but allowed free access to water, and then, under urethane anesthesia (1.25 g/kg, i.p.), fixed to a cork board on its back. The abdomen of each rat was incised, and a small incision was made in the forestomach. Then, the inside of the stomach was washed with physiological saline heated at 37° C. From the forestomach, along the greater curvature thereof, the stomach was incised without damaging blood vessels. After the height of the cork board was adjusted on a jack, the stomach was mounted on ex vivo chamber. The area of the gastric mucosa exposed to the inside of this chamber was 2.5 cm^2. The inside of the chamber was perfused with physiological saline warmed at 37° C. by micro tube pump. By using an agar bridge containing 3M KCl, the potential difference between the chamber and the abdominal cavity was measured by a PD meter. Here, the rectal temperature was measured to control the body temperature during the experiment. […] To a control, the vehicle was administered.
The change in PD during 60 minutes after the administration of 100 mg/kg of the sample compound was collectively studied and, with reference to the positive control, classified into 5 levels as follows:
5: Same as the control with no recognizable damage at all.
3: Though a weak decrease in PD and a possibility of a weak mucosal damage is recognized, there is no substantial problem.
2: Medium degree of decrease in PD is found and a mucosal damage is recognized.
1: Heavy degree of decrease in PD is found and a remarkable mucosal damage is recognized.

[4] = system: gastric acid secretion (pylorus-ligated, histamine-stimulated rats); assay: VOL, TAO: Acid Secretion Inhibition Test In Vivo; set-up: species or system rat (male Crj:Donryu); conditions: rat, 100 mg/kg, oral; histamine 30 mg/kg s.c.
Method: VOL, TAO: Acid Secretion Inhibition Test In Vivo
Inhibitory effect on acid secretion in vivo is confirmed.
Male Crj:Donryu rats (7-week-old) were fasted overnight but allowed free access to water. In each group, 8 to 10 of these rats were used under urethane anesthesia (1.25 g/kg). […] 30 minutes later, the abdomen of each was incised and the pylorus was ligated. 30 minutes after the ligation, 30 mg/kg of histamine dissolved in physiological saline was subcutaneously administered and, 3 hours thereafter, the rat was sacrificed with carbon dioxide. Immediately thereafter, each stomach was removed and the gastric contents were collected and each volume was determined. The total acid output was determined by titration of the gastric juice with 0.1N NaOH.
With respect to the gastric juice volume (VOL) and the total acid output (TAO), the effects obtained when 100 mg/kg of the sample compound had been administered were expressed as their respective inhibitory rates (%) as follows:
each inhibitory rate (%)=(1-(value in sample group/value in control

mice = conditions: mouse, in vivo
Method: AT: Single Dose Toxicity Pretest
Male Slc:ICR mice (5-week-old) were used. Each group has 3 to 5 mice and each mouse was fasted, but allowed free access to water, for 4 to 5 hours from 9 a.m. in the test day. Then, 2,000 mg/10 ml/kg of the sample compound dissolved or suspended in an aqueous solution of 0.5% sodium carboxymethyl cellulose was orally administered thereto. To a control, only the vehicle was administered. […] The body weight was measured before and after the fasting as well as at the same time everyday. The dead animals were immediately subjected to autopsy and their organs were observed microscopically. Also, the living animals were sacrificed with ether or carbon dioxide one week after the administration and then their organs were observed microscopically.
The toxicity at the single dose of 2,000 mg/kg of the sample compound was expressed as being classified into 5 levels.
5: Mortality rate is 0%; no toxicity is found at all both in behavior and organs.
4: Mortality rate is 0%; while no toxicity is found in organs, slight toxicity is observed in behavior and body weight increase.
3: While there is a dead animal (though not all the animals are dead), no toxicity is found in organs.
2: Regardless of whether there is a dead animal or not, toxicity is found in organs.
1: All the animals are dead.

CC(C)=CCC/C(C)=C/COc1ccc(OC/C=C(\C)CCC=C(C)C)c(C(=O)NCCc2ccncc2)c1 [Example 5, 4-[2-(2,5-digeranyloxybenzoylamino)ethyl]pyridine]
inhibition at 10 µM [1]: 99% | WIS: ulcer formation inhibitory rate [2]: 35% | cytotoxicity at 4 h, 100 µM [3]: -17%

COc1ccc(NCCNC(=O)c2ccc(OC/C=C(\C)CCC=C(C)C)cc2)cn1 [Example 9, 3-[2-(4-geranyloxybenzoylamino)ethylamino]-6-methoxypyridine]
inhibition at 10 µM [1]: 77% | WIS: ulcer formation inhibitory rate [2]: 42% | cytotoxicity at 4 h, 100 µM [3]: 8%

CC(C)=CCC/C(C)=C/COc1ccc(C(=O)NCCSc2ccc(C(F)(F)F)cn2)cc1 [Example 12, 2-[2-(4-geranyloxybenzoylamino)ethylthio]-5-trifluoromethylpyridine]
PD: change in gastric mucosal potential difference (5 levels) (gastric mucosa): 5 | TAO: total acid output inhibitory rate [4]: -10% | VOL: gastric juice volume inhibitory rate [4]: -5% | WIS: ulcer formation inhibitory rate [2]: 37% | cytotoxicity at 4 h, 100 µM [3]: -14% | AT: toxicity at the single dose (5 levels) (mice): 5

CC(C)Cc1cc(C(=O)NCCc2ccncc2)ccc1OCc1ccc(F)cc1 [Example 14, 4-[2-[4-(4-fluorobenzyloxy)-3-isobutylbenzoylamino]ethyl]pyridine]
inhibition at 10 µM [1]: 97% | WIS: ulcer formation inhibitory rate [2]: 91% | AT: toxicity at the single dose (5 levels) (mice): 4

CC(C)Cc1cc(C(=O)NCCc2ccncc2)ccc1OCc1ccc(F)cc1.Cl [Example 15, 4-[2-[4-(4-fluorobenzyloxy)-3-isobutylbenzoylamino]ethyl]pyridine hydrochloride]
CAP: acid secretion inhibitory rate ([1]; 40 minutes): 95.1% | WIS: ulcer formation inhibitory rate [2]: 86%
